What is called EC50 is the concentration at which the effect is half-maximal.

Here are results for 37 compounds from patent US20150307461A1, “ANTIVIRAL COMPOUNDS” (priority 2012, published 2015).

The structures appear in SMILES notation.

What all share (experiment): microbe, parasite or virus in culture
The test system of test [1] is Pseudotyped HCV GT1b particles (HCVpp). In kind it is cell-based, HCV GT1b Con1 strain. The note with it: Hepatitis C virus, 72 h, read-out: HCVpp GT-1b (EC50, μM).
Test [2] concerns pseudotyped VSV G particles (VSVpp). The format is cell-based. The settings on record: Vesicular stomatitis virus, 72 h, read-out: VSVpp (EC50, μM).
Test [3] deals with Pseudotyped HCV GT1a particles (HCVpp). The format is cell-based, HCV GT1a H77 strain. The note with it: Hepatitis C virus, 72 h, read-out: HCVpp GT-1a (EC50, μM).

Turning to `Nc1nc(Nc2cc(F)c(Br)c(Cl)c2)n[nH]1` [Compound I-5, N^3-(4-Bromo-3-chloro-5-fluoro-phenyl)-1H-[1,2,4]triazole-3,5-diamine], the EC50 amounted to 0.536 µM in test [1] and 45.5 µM in test [2].

With `CN(c1cc(Cl)c(Cl)c(Cl)c1)c1n[nH]c(N)n1` [Compound I-27, N*3*-Methyl-N*3*-(3,4,5-trichloro-phenyl)-1H-[1,2,4]triazole-3,5-diamine], the EC50 in test [3] was determined as 21.1 µM; in test [2], 94.4 µM. Taken in the same sequence, the figures for `CN(c1cc(Cl)cc(Cl)c1)c1n[nH]c(N)n1` [Compound I-28, N*3*-(3,5-Dichloro-phenyl)-N*3*-methyl-1H-[1,2,4]triazole-3,5-diamine] were 82.8 µM and 100 µM. Taken in the same sequence, the figures for `Nc1nc(N(Cc2ccccc2)c2cc(Cl)cc(Cl)c2)n[nH]1` [Compound I-29, N*3*-Benzyl-N*3*-(3,5-dichloro-phenyl)-1H-[1,2,4]triazole-3,5-diamine] were 6.49 µM and 7.5 µM. Taken in the same sequence, the figures for `N#CCN(c1cc(Cl)cc(Cl)c1)c1n[nH]c(N)n1` [Compound I-30, [(5-Amino-1H-[1,2,4]triazol-3-yl)-(3,5-dichloro-phenyl)-amino]-acetonitrile] were 14.5 µM and 100 µM. On to `Nc1nc(Nc2cccc(C(=O)O)c2)n[nH]1` [Compound I-31, 3-(5-Amino-1H-[1,2,4]triazol-3-ylamino)-benzoic acid], for which the EC50 in test [3] and in test [2] was 100 µM throughout.

Regarding `CS(=O)(=O)Nc1cccc(Nc2n[nH]c(N)n2)c1` [Compound I-33, N-[3-(5-Amino-1H-[1,2,4]triazol-3-ylamino)-phenyl]-methanesulfonamide], the EC50 in test [3] and in test [2] was 100 µM each time. Regarding `N#Cc1ccc(Nc2n[nH]c(N)n2)cc1S(=O)(=O)C(F)(F)F` [Compound I-34, 4-(5-Amino-1H-[1,2,4]triazol-3-ylamino)-2-trifluoromethanesulfonyl-benzonitrile], the EC50 was 0.2 µM in test [3] and more than 1 µM in test [2]. As for `Nc1nc(Nc2ccc(Br)c(Cl)c2)n[nH]1` [Compound I-40, N*3*-(4-Bromo-3-chloro-phenyl)-1H-[1,2,4]triazole-3,5-diamine], the EC50 in test [1] is 3.29 µM; in test [2] it was 45.7 µM.

In the case of `Nc1nc(Nc2cc(Cl)c(S(=O)(=O)N3CCOCC3)c(Cl)c2)n[nH]1` [Compound I-44, N3-(3,5-dichloro-4-(morpholinosulfonyl)phenyl)-1H-1,2,4-triazole-3,5-diamine], the values for the EC50 in test [1] and in test [2] were 0.545 µM and 100 µM, respectively.

Turning to `Nc1n[nH]c(Nc2cc(F)c(Br)c(C(F)(F)F)c2)n1` [Compound I-45, N^5-(4-bromo-3-fluoro-5-trifluoromethylphenyl)-1H-[1,2,4]-triazole-3,5-diamine], the 50% effective concentration (EC50) in test [1] was determined as 0.095 µM; in test [2], 82.5 µM. Turning to `Nc1n[nH]c(Nc2cc(F)c(Br)c(F)c2)n1` [Compound I-46, N^5-(4-Bromo-3,5-difluoro-phenyl)-1H-[1,2,4]triazole-3,5-diamine], the EC50 in test [1] stood at 1.18 µM; in test [2], 100 µM.

For the compound `N#Cc1ccc(Nc2n[nH]c(N)n2)cc1` [Compound I-47, 4-(5-Amino-1H-[1,2,4]triazol-3-ylamino)-benzonitrile], the EC50 in test [3] stood at 19.6 µM; in test [2], 100 µM. For the compound `Nc1nc(Nc2cccc(Cl)c2Cl)n[nH]1` [Compound I-49, N^3-(2,3-Dichloro-phenyl)-1H-[1,2,4]triazole-3,5-diamine], the EC50 in test [3] and in test [2] was 100 µM each time.

Regarding `Nc1nc(Nc2cccc(C(F)(F)F)c2F)n[nH]1` [Compound I-53, N^3-(2-Fluoro-3-trifluoromethyl-phenyl)-1H-[1,2,4]triazole-3,5-diamine], the EC50 in test [3] and in test [2] was 100 µM each time. For the compound `Nc1nc(Nc2cccc(CC(F)(F)F)c2)n[nH]1` [Compound I-55, N^3-[3-(2,2,2-Trifluoro-ethyl)-phenyl]-1H-[1,2,4]triazole-3,5-diamine], the EC50 in test [3] was found to be 10.3 µM; in test [2], 100 µM.

Regarding `Nc1nc(Nc2cccc(C(=O)c3ccccc3)c2)n[nH]1` [Compound I-58, [3-(5-Amino-1H-[1,2,4]triazol-3-ylamino)-phenyl]-phenyl-methanone], the EC50 in test [3] was determined as 4.08 µM.

`N#CC1(c2cccc(Nc3n[nH]c(N)n3)c2)CC1` [Compound I-59, 1-[3-(5-Amino-1H-[1,2,4]triazol-3-ylamino)-phenyl]-cyclopropanecarbonitrile]: the EC50 worked out at 1.46 µM in test [3] and 100 µM in test [2]. In the case of `Nc1nc(Nc2cc(F)cc(Cl)c2)n[nH]1` [Compound I-61, N^3-(3-Chloro-5-fluoro-phenyl)-1H-[1,2,4]triazole-3,5-diamine], the values for the EC50 in test [1] and in test [2] were 0.331 µM and more than 10 µM, respectively. Taken in the same sequence, the figures for `CNC(=O)Nc1ccc(Nc2n[nH]c(N)n2)cc1Cl` [Compound I-62, 1-[4-(5-Amino-1H-[1,2,4]triazol-3-ylamino)-2-chloro-phenyl]-3-methyl-urea] were 100 µM and 100 µM. For the compound `COC(=O)c1c(Cl)cc(Nc2n[nH]c(N)n2)cc1Cl` [Compound I-63, 4-(5-Amino-1H-[1,2,4]triazol-3-ylamino)-2,6-dichloro-benzoic acid methyl ester], the EC50 in test [1] was 1.74 µM; in test [2], 100 µM.

As for `Nc1nc(Nc2cc(Cl)c(C(=O)Nc3ccccc3)c(Cl)c2)n[nH]1` [Compound I-64, 4-(5-Amino-1H-[1,2,4]triazol-3-ylamino)-2,6-dichloro-N-phenyl-benzamide], the concentration for a half-maximal effect (EC50) was 4.09 µM in test [1] and 8.6 µM in test [2]. Take `Nc1nc(Nc2cc(Cl)c(C(=O)N3CCCC3)c(Cl)c2)n[nH]1` [Compound I-65, [4-(5-Amino-1H-[1,2,4]triazol-3-ylamino)-2,6-dichloro-N-phenyl]-pyrrolidin-1-yl-methanone]: the EC50 is 3.67 µM in test [1] and 100 µM in test [2].

`CS(=O)(=O)c1cccc(NC(=O)c2c(Cl)cc(Nc3n[nH]c(N)n3)cc2Cl)c1` [Compound I-66, 4-(5-Amino-1H-[1,2,4]triazol-3-ylamino)-2,6-dichloro-N-(3-methanesulfonyl-phenyl)-benzamide]: the EC50 amounted to 4.99 µM in test [1] and 100 µM in test [2]. Taken in the same sequence, the figures for `C=Cc1c(Cl)cc(Nc2n[nH]c(N)n2)cc1Cl` [Compound I-67, N^3-(3,5-Dichloro-4-vinyl-phenyl)-1H-[1,2,4]triazole-3,5-diamine] were 0.685 µM and 100 µM. `N#Cc1c(F)cc(Nc2nc(N)n[nH]2)cc1C(F)(F)F` [Compound I-68, 4-(5-Amino-2H-[1,2,4]triazol-3-ylamino)-2-fluoro-6-trifluoromethyl-benzonitrile]: the values for the EC50 in test [1] and in test [2] were 0.161 µM and 43.3 µM, respectively. Taken in the same sequence, the figures for `N#Cc1c(F)cc(Nc2nc(N)n[nH]2)cc1F` [Compound I-69, 4-(5-Amino-2H-[1,2,4]triazol-3-ylamino)-2-difluoro-benzonitrile] were 0.561 µM and 100 µM.

Regarding `Cn1nc(N)nc1Nc1cccc(S(F)(F)(F)(F)F)c1` [Compound I-71, 1-Methyl-N*5*-(3-pentafluorosulfur-phenyl)-1H-[1,2,4]triazole-3,5-diamine], the EC50 in test [3] and in test [2] was 100 µM throughout. On to `Nc1nc(Nc2cccc(S(F)(F)(F)(F)F)c2)n(C2CCCCC2)n1` [Compound I-72, Cyclohexyl-N*5*-(3-pentafluorosulfur-phenyl)-1H-[1,2,4]triazole-3,5-diamine], for which the results for the concentration for a half-maximal effect (EC50) in test [3] and in test [2] were 36.1 µM and 68.3 µM, respectively. Taken in the same sequence, the figures for `Cn1nc(N)nc1Nc1cc(F)cc(S(F)(F)(F)(F)F)c1` [Compound I-74, N*5*-(3-Fluoro-5-pentafluorosulfur-phenyl)-1-methyl-1H-[1,2,4]triazole-3,5-diamine] were 34.3 µM and 100 µM.

Regarding `Nc1nc(Nc2ccc(S(F)(F)(F)(F)F)cc2)n[nH]1` [Compound I-75, N*3*-(4-pentafluorosulfur-phenyl)-1H-[1,2,4]triazole-3,5-diamine], the EC50 in test [3] amounted to 14.3 µM; in test [2] it was 100 µM. Taken in the same sequence, the figures for `Cc1ccc(Nc2n[nH]c(N)n2)cc1Cl` [Compound I-76, N^3-(3-Chloro-4-methyl-phenyl)-1H-[1,2,4]triazole-3,5-diamine] were 0.791 µM and 100 µM. As for `CN(C)C(=O)c1ccc(Nc2n[nH]c(N)n2)cc1Cl` [Compound I-78, 4-(5-Amino-1H-[1,2,4]triazol-3-ylamino)-2-chloro-N,N-dimethyl-benzamide], the EC50 in test [3] was found to be 32.1 µM; in test [2], 100 µM.

Take `Nc1nc(Nc2ccc(Br)c(S(F)(F)(F)(F)F)c2)n[nH]1` [Compound I-81, N*3*-(4-Bromo-3-pentafluorosulfur-phenyl)-1H-[1,2,4]triazole-3,5-diamine]: the values for the EC50 in test [1] and in test [2] were 0.527 µM and 34 µM, respectively. Taken in the same sequence, the figures for `Nc1nc(Nc2cc(Br)cc(S(F)(F)(F)(F)F)c2)n[nH]1` [Compound I-82, N*3*-(3-Bromo-5-pentafluorosulfur-phenyl)-1H-[1,2,4]triazole-3,5-diamine] were 0.918 µM and 57.5 µM. Taken in the same sequence, the figures for `N#CCc1c(Cl)cc(Nc2n[nH]c(N)n2)cc1C(F)(F)F` [Compound I-84, 2-(4-(5-amino-1H-1,2,4-triazol-3-ylamino)-2-chloro-6-(trifluoromethyl)phenyl)acetonitrile] were 0.628 µM and 42.1 µM. Take `Nc1nc(Nc2cc(Cl)c(Cc3nnn[nH]3)c(C(F)(F)F)c2)n[nH]1` [Compound I-90, N3-(4-((1H-tetrazol-5-yl)methyl)-3-chloro-5-(trifluoromethyl)phenyl)-1H-1,2,4-triazole-3,5-diamine]: the EC50 was 24.4 µM in test [3] and 100 µM in test [2].
